# Measured values from patent US20250034170A1, “SMALL MOLECULE MODULATORS OF GLUCOCEREBROSIDASE ACTIVITY AND USES THEREOF” (Vanqua Bio, Inc., priority 2021, published 2025).
# Biological target: T1, GCase (Homo sapiens, UniProt P04062)
# T1 construct: endogenous in cells; host or cells: HeLa cells
# T1 sequence (P04062 40-536): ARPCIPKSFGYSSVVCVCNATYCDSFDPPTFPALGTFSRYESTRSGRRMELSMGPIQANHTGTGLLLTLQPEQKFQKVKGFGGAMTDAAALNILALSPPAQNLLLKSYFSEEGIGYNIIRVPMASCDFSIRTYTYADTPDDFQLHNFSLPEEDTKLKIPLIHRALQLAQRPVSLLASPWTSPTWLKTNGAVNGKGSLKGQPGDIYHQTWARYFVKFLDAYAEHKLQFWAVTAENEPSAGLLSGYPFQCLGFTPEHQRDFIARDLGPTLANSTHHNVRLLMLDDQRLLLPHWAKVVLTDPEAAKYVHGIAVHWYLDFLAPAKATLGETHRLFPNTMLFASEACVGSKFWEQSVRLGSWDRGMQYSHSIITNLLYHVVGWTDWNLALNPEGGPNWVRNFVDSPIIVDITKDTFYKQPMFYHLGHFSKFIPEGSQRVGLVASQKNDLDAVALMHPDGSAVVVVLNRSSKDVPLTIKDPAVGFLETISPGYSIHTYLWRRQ
# Assay: activation of GCase in a live cell PFB assay in HELA cells
# Assay type: cell-based
# Settings: EC50 given as range classes
# Method: Exemplary compounds were evaluated for activation of GCase in a live cell PFB assay in HELA cells (essentially as described in Ysselstein et al., “LRRK2 kinase activity regulates lysosomal glucocerebrosidase in neurons derived from Parkinson's disease patients” Nature Communications (2019) 10:5570). […] EC50 ranges: A: <10 μM; B: >10-50 μM; C: >50-100 μM; D: >100 μM.
row,Structure (SMILES),EC50 [µM]
1,Cc1ncc(N2CC3(CCN(c4ncc5c(C)nn(CC(F)F)c5n4)C3)C2)c(C(F)(F)F)n1 [Cmpd 591],< 10
2,Cc1ncc(N2CC3(CCN(c4cnc5cnn(CC(F)F)c5n4)C3)C2)c(C(F)(F)F)n1 [Cmpd 592],> 100
3,Cc1ncc(N2CC3(CCN(c4cnc5c(C)nn(CC(F)F)c5n4)C3)C2)c(C(F)(F)F)n1 [Cmpd 593],> 100
4,Cc1ncc(N2CC3(CCN(c4cnc5cnn(CC(F)(F)F)c5n4)C3)C2)c(C(F)(F)F)n1 [Cmpd 594],> 100
5,Cc1ncc(N2CC3(CCN(c4ncc5cnn(CC(F)F)c5n4)C3)C2)c(C(F)(F)F)n1 [Cmpd 595],< 10
6,Cc1ncc(N2CC3(CCN(c4ncc5cnn(CC(F)(F)F)c5n4)C3)C2)c(C(F)(F)F)n1 [Cmpd 596],< 10
7,Cc1ncc(N2CC3(CCN(c4cnc5cnn(C6COC6)c5n4)C3)C2)c(C(F)(F)F)n1 [Cmpd 597],> 100
8,Cc1ncc(N2CC3(CCN(c4ncc5cnn(C6COC6)c5n4)C3)C2)c(C(F)(F)F)n1 [Cmpd 598],10 to 50
9,Cc1ncc(N2CC3(CCN(c4cnc5c(C)nn(C6COC6)c5n4)C3)C2)c(C(F)(F)F)n1 [Cmpd 599],10 to 50
10,Cc1ncc(N2CC3(CCN(c4ncc5c(C)nn(C6COC6)c5n4)C3)C2)c(C(F)(F)F)n1 [Cmpd 600],50 to 100
11,Cc1ncc(N2CCC3(CCN(c4cnc5cnn(CC(F)F)c5n4)CC3)C2)c(C(F)(F)F)n1 [Cmpd 601],< 10
12,Cc1ncc(N2CCC3(CCN(c4cnc5c(C)nn(CC(F)F)c5n4)CC3)C2)c(C(F)(F)F)n1 [Cmpd 602],10 to 50
13,Cc1nn(CC(F)(F)F)c2nc(N3CCC4(CCN(c5cnc(C(F)(F)F)nc5)C4)C3)cnc12 (stereo not shown) [Cmpd 603],10 to 50
14,Cc1nn(CC(F)(F)F)c2nc(N3CCC4(CN(c5cnc(C(F)(F)F)nc5)C4)C3)cnc12 [Cmpd 605],> 100
15,Cc1ncc(N2CC3(CCN(c4cnc5c(C)nn(CC(F)(F)F)c5n4)C3)C2)c(C(F)(F)F)n1 [Cmpd 606],50 to 100
16,Cc1nc(N2CC3(CCN(c4cc5c(cn4)c(C)nn5CC(F)F)CC3)CC2=O)cc(C(F)(F)F)n1 [Cmpd 614],10 to 50
17,Cc1nn(CC(F)(F)F)c2nc(N3CCC4(CCN(c5cnc(C(F)(F)F)nc5)C4)C3)ncc12 (stereo not shown) [Cmpd 615],10 to 50
18,Cc1ncc(N2CC3(CCN(c4ncc5c(C)nn(CC(F)(F)F)c5n4)C3)C2)c(C(F)(F)F)n1 [Cmpd 620],10 to 50

# Second part, the compound after the results:
row,EC50 [µM],Structure (SMILES)
1,> 100,Cc1nc(N2CCC3(CCN(c4cnc5c(C)nn(CC(F)(F)F)c5n4)C3)C2)cc(C(F)(F)F)n1 (stereo not shown) [Cmpd 604]
2,10 to 50,Cc1cc(N2CC3(CCN(c4cnc5c(C)nn(CC(F)(F)F)c5n4)C3)C2)nc(C(F)(F)F)n1 [Cmpd 607]
3,50 to 100,Cc1nc(N2CC3(CCN(c4cnc5c(C)nn(CC(F)(F)F)c5n4)C3)C2)cc(C(F)(F)F)n1 [Cmpd 608]
4,10 to 50,Cc1nc(N2CCC3(C2)CN(c2cnc4c(C)nn(CC(F)(F)F)c4n2)C3)cc(C(F)(F)F)n1 [Cmpd 609]
5,< 10,Cc1nc(N2CC3(CCN(c4cnc5c(C)nn(CC(F)(F)F)c5n4)CC3)C2)cc(C(F)(F)F)n1 [Cmpd 610]
6,> 100,Cc1nc(N2CCC3(CCN(c4cnc5c(C)nn(CC(F)(F)F)c5n4)CC3)C2)cc(C(F)(F)F)n1 [Cmpd 611]
7,50 to 100,Cc1nc(N2CC3(CCN(c4cc5c(cn4)c(C)nn5CC(F)F)C3)C2)cc(C(F)(F)F)n1 [Cmpd 612]
8,< 10,Cc1nc(N2CC3(CCN(c4cc5c(cn4)c(C)nn5CC(F)F)CC3)C2)cc(C(F)(F)F)n1 [Cmpd 613]
9,10 to 50,Cc1nc(N2CCC3(CCN(c4ncc5c(C)nn(CC(F)(F)F)c5n4)C3)C2)cc(C(F)(F)F)n1 (stereo not shown) [Cmpd 616]
10,10 to 50,Cc1nc(N2CCC3(C2)CN(c2ncc4c(C)nn(CC(F)(F)F)c4n2)C3)cc(C(F)(F)F)n1 [Cmpd 617]
11,10 to 50,Cc1nc(N2CC3(CCN(c4ncc5c(C)nn(CC(F)(F)F)c5n4)CC3)C2)cc(C(F)(F)F)n1 [Cmpd 618]
12,10 to 50,Cc1nc(N2CCC3(CCN(c4ncc5c(C)nn(CC(F)(F)F)c5n4)CC3)C2)cc(C(F)(F)F)n1 [Cmpd 619]
13,10 to 50,Cc1nc(N2CC3(CCN(c4ccc5cnn(CC(F)F)c5n4)C3)C2)cc(C(F)(F)F)n1 [Cmpd 621]
14,10 to 50,Cc1nc(N2CC3(CCN(c4ccc5c(C)nn(CC(F)F)c5n4)C3)C2)cc(C(F)(F)F)n1 [Cmpd 622]
15,< 10,Cc1nc(N2CC3(CCN(c4ccc5cnn(CC(F)F)c5n4)CC3)C2)cc(C(F)(F)F)n1 [Cmpd 623]
16,< 10,Cc1nc(N2CC3(CCN(c4ccc5c(C)nn(CC(F)F)c5n4)CC3)C2)cc(C(F)(F)F)n1 [Cmpd 624]
17,< 10,Cc1nc(N2CCC3(CCN(c4ccc5cnn(CC(F)F)c5n4)CC3)C2)cc(C(F)(F)F)n1 [Cmpd 625]
18,< 10,Cc1nc(N2CCC3(CCN(c4ccc5c(C)nn(CC(F)F)c5n4)CC3)C2)cc(C(F)(F)F)n1 [Cmpd 626]
19,< 10,Cc1nc(N2CC3(CCN(c4ccc5cnn(CC(F)F)c5n4)CC3)CC2=O)cc(C(F)(F)F)n1 [Cmpd 627]
20,< 10,Cc1nc(N2CC3(CCN(c4ccc5c(C)nn(CC(F)F)c5n4)CC3)CC2=O)cc(C(F)(F)F)n1 [Cmpd 628]
21,10 to 50,Cc1nc(N2CC3(CCN(c4ncc5cnn(C(C)(C)C)c5n4)C3)C2)cc(C(F)(F)F)n1 [Cmpd 629]
22,10 to 50,Cc1nc(N2CCC3(CCN(c4cc5c(cn4)c(C)nn5CC(F)F)CC3)C2)cc(C(F)(F)F)n1 [Cmpd 630]
23,10 to 50,Cc1nc(N2CC3(CCN(c4cc5c(cn4)cnn5CC(F)F)C3)C2)cc(C(F)(F)F)n1 [Cmpd 631]
24,< 10,Cc1nc(N2CC3(CCN(c4cc5c(cn4)cnn5CC(F)F)CC3)C2)cc(C(F)(F)F)n1 [Cmpd 632]
25,< 10,Cc1nc(N2CCC3(CCN(c4cc5c(cn4)cnn5CC(F)F)CC3)C2)cc(C(F)(F)F)n1 [Cmpd 633]

# Same assay, conditions: activation of GCase, EC50 ranges
row,Structure (SMILES),EC50 [µM]
1,Cc1cc(N2CC3(CCN(c4ncc5c(C)nn(CC(F)F)c5n4)C3)C2)nc(C)n1 [Cmpd 641],10 to 50
2,Cc1cc(N2CC3(CCN(c4ncc5cnn(C6COC6)c5n4)C3)C2)nc(C)n1 [Cmpd 643],10 to 50
3,Cc1cc(N2CC3(CCN(c4ncc5c(C)nn(C6COC6)c5n4)C3)C2)nc(C)n1 [Cmpd 644],10 to 50
4,Cc1cc(N2CC3(CCN(c4cnc5c(C)nn(C6COC6)c5n4)C3)C2)nc(C)n1 [Cmpd 645],10 to 50
5,Cc1cc(N2CC3(CCN(c4cnc5cnn(C6COC6)c5n4)C3)C2)nc(C)n1 [Cmpd 646],10 to 50
6,Cc1ncc(N2CC3(CCN(c4cnc5cnn([C@H]6CCOC6)c5n4)C3)C2)c(C(F)(F)F)n1 [Cmpd 652],> 100
7,Cc1ncc(N2CC3(CCN(c4cnc5cnn([C@@H]6CCOC6)c5n4)C3)C2)c(C(F)(F)F)n1 [Cmpd 653],> 100
8,FC(F)(F)c1ncc(N2CC3(CCN(c4cnc5cnn([C@H]6CCOC6)c5n4)C3)C2)cn1 [Cmpd 654],10 to 50
9,FC(F)(F)c1ncc(N2CC3(CCN(c4cnc5cnn([C@@H]6CCOC6)c5n4)C3)C2)cn1 [Cmpd 655],10 to 50
10,Cc1nc(C(F)(F)F)ncc1N1CC2(CCN(c3cnc4cnn([C@H]5CCOC5)c4n3)C2)C1 [Cmpd 656],50 to 100
11,Cc1nc(C(F)(F)F)ncc1N1CC2(CCN(c3cnc4cnn([C@@H]5CCOC5)c4n3)C2)C1 [Cmpd 657],10 to 50
12,Cc1nc(C(F)(F)F)ncc1N1CCC2(CCN(c3ncc4c(C)nn(CC(F)(F)F)c4n3)C2)C1 (stereo not shown) [Cmpd 658],10 to 50
13,Cc1ncc(N2CCC3(CCN(c4ncc5c(C)nn(CC(F)(F)F)c5n4)C3)C2)c(C(F)(F)F)n1 (stereo not shown) [Cmpd 659],10 to 50

# Continued, values first:
row,EC50 [µM],Structure (SMILES)
1,< 10,Cc1nc(N2CC3(CCN(c4cc5c(cn4)cnn5CC(F)F)CC3)CC2=O)cc(C(F)(F)F)n1 [Cmpd 634]
2,< 10,FC(F)Cn1ncc2ncc(N3CCC4(C3)CN(c3ccnc(C(F)(F)F)c3)C4)cc21 [Cmpd 635]
3,< 10,Cc1nc(N2CC3(CCN(c4cnc5cnn(CC(F)F)c5c4)C3)C2)cc(C(F)(F)F)n1 [Cmpd 636]
4,10 to 50,Cc1nc(N2CC3(CCN(c4ccc5nccn5n4)C3)C2)cc(C(F)(F)F)n1 [Cmpd 637]
5,10 to 50,Cc1cn2nc(N3CCC4(CN(c5cc(C(F)(F)F)nc(C)n5)C4)C3)ccc2n1 [Cmpd 638]
6,10 to 50,Cc1cc(N2CC3(CCN(c4cnc5cnn(CC(F)F)c5n4)C3)C2)nc(C)n1 [Cmpd 639]
7,10 to 50,Cc1cc(N2CC3(CCN(c4cnc5c(C)nn(CC(F)F)c5n4)C3)C2)nc(C)n1 [Cmpd 640]
8,10 to 50,Cc1cc(N2CC3(CCN(c4ncc5cnn(CC(F)F)c5n4)C3)C2)nc(C)n1 [Cmpd 642]
9,10 to 50,Cc1nc(N2CC3(CCN(c4ncc5cnn(C)c5n4)C3)C2)cc(C(F)(F)F)n1 [Cmpd 647]
10,< 10,Cc1nc(N2CC3(CCN(c4ncc5c(C)nn(C)c5n4)C3)C2)cc(C(F)(F)F)n1 [Cmpd 648]
11,10 to 50,Cc1nc(N2CC3(CCN(c4cnc5cnn(C)c5n4)C3)C2)cc(C(F)(F)F)n1 [Cmpd 649]
12,< 10,Cc1nc(N2CC3(CCN(c4ncc5cnn(C(F)F)c5n4)C3)C2)cc(C(F)(F)F)n1 [Cmpd 650]
13,10 to 50,Cc1nc(N2CC3(CCN(c4ncc5cn(C(F)F)nc5n4)C3)C2)cc(C(F)(F)F)n1 [Cmpd 651]
14,10 to 50,FC(F)(F)c1ccc(N2CC3(CCN(c4cnc5cnn(C6COC6)c5n4)C3)C2)cn1 [Cmpd 660]
